# Test results from ChEMBL document CHEMBL3297661, “1-Substituted-5-[(3,5-dinitrobenzyl)sulfanyl]-1H-tetrazoles and their isosteric analogs: A new class of selective antitubercular agents active against drug-susceptible and multidrug-resistant mycobacteria” (Eur J Med Chem, 2014).
# System: Mycobacterium tuberculosis
# Experiment: Antimycobacterial activity against Mycobacterium tuberculosis H37Rv
# Format: functional
row,SMILES,MIC
1,O=[N+]([O-])c1cn2c(n1)OC[C@@H](OCc1ccc(OC(F)(F)F)cc1)C2 [PRETOMANID],0.11 µM
